For test [1], the system named is bovine cartilage explants. Put plainly: bovine cartilage explant assay, IL-1α, GAG release (polypeptide 949). The class given is cell-based. As to conditions: 5 days with IL-1α, FIG. 3. Here is the method: FIG. 3: Efficacy of polypeptide 949 (“NB949”) in bovine cartilage explant assay.
In short, the polypeptide was incubated with bovine cartilage explants that were cultured 5 days with IL-1α to induce an OA-like cartilage degradation process. Within 5 days, degradation of primarily Aggrecan ensues, whereas Collagen degradation only occurs after about two weeks, i.e., after termination of the experiments described here. At the end of the experiment, the GAG (mainly derived from Aggrecan) which was released from the degrading cartilage into the culture supernatant was quantified.

Test [2] deals with human cartilage explants. Put plainly: human cartilage explant assay, IL-1β + OSM, GAG release. As to conditions: reference set at 100%, FIG. 4. The class given is cell-based. Here is the method:
FIG. 4: Efficacy of polypeptide 949 in a human cartilage explant assay.
Polypeptide 949 (M-A-C-C: 62C02-2F03-114F08-114F08) was tested in human cartilage explant assays for inhibition of cartilage degradation. Briefly, the polypeptide was incubated with human cartilage explants that were cultured 7 days with IL-1β+Oncostatin M (OSM). Within 7 days, degradation of primarily Aggrecan ensues, whereas Collagen degradation only occurs after about two weeks, i.e., after termination of the experiments described here. At the end of the experiment, the GAG (mainly derived from Aggrecan) which was released from the degrading cartilage into the culture supernatant was quantified. The IC50 was calculated on the basis of the negative control level (=GAG release from explants without additional stimulus) and the IL-1 β+OSM level, as measure for maximal GAG loss. GAG is shown as GAG release (in μg) per mg cartilage of each individual explant.

For `CC(C)(Cc1ccc(F)cc1)NC(=O)[C@H](CCC(=O)O)NC(=O)c1ccc(-c2ccccc2)cc1` [AGG-523], in test [1], the “inhibition of bovine cartilage degradation (IL-1α stimulated GAG release)” value is recorded as “fully inhibits”. Further, the “inhibition of stimulated GAG release in human cartilage explant assay” value in test [2] is reported as “fully inhibits”.

For the origin of these results see patent publication US20240181006A1, “POLYPEPTIDES BINDING ADAMTS5, MMP13 AND AGGRECAN” (Merck Patent GmbH, priority 2017, published 2024).
